Test results reported in US20240368127A1, “HSD17B13 INHIBITORS AND USES THEREOF” (FL2022-001, Inc., priority 2021, published 2024).

Target: T1, Recombinant human HSD17B13 enzyme (Homo sapiens, UniProt Q7Z5P4)
T1 sequence (Q7Z5P4 20-300): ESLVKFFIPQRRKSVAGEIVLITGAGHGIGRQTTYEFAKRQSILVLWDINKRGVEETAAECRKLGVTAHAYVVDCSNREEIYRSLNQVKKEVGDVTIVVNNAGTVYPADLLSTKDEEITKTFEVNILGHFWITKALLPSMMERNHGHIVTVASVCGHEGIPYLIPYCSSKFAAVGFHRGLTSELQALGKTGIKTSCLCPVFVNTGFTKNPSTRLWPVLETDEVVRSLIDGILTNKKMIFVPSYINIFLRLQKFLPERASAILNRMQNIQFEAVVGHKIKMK
Experiment: HSD17b13 NAD(P)H-Glo biochemical assay
Settings: 50 μM estradiol, 1 mM NAD+, 37° C. for 3 hours; read-out: HSD17β13 IC50
Method in brief: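 Enzyme preincubated with inhibitor 20 min at RT in 20 mM Tris pH7.4, 0.002% Tween-20, 0.02% BSA, then reacted 3 h at 37° C with 50 μM estradiol and 1 mM NAD+ (final). NADH formation read by NAD(P)H-Glo luminescence after 1 h at RT.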

| IC50 [nM] | SMILES |
| --- | --- |
| ≤ 100 | Cn1nc(-c2cc(C(F)(F)F)c(F)c(O)c2F)c2cnc(N3CCC[C@@H]3Cc3ccccc3)nc21 [Compound 5.30, (R)-3-(6-(2-Benzylpyrrolidin-1-yl)-1-methyl-1H-pyrazolo[3,4-d]pyrimidin-3-yl)-2,6-difluoro-5-(trifluoromethyl)phenol] |
| ≤ 100 | Cn1nc(-c2cc(C(F)(F)F)c(F)c(O)c2F)c2cnc(N3CCNC[C@H]3Cc3ccccc3)nc21 [Compound 5.31, (R)-3-(6-(2-Benzylpiperazin-1-yl)-1-methyl-1H-pyrazolo[3,4-d]pyrimidin-3-yl)-2,6-difluoro-5-(trifluoromethyl)phenol] |
| ≤ 100 | Cn1nc(-c2cc(C(F)(F)F)c(F)c(O)c2F)c2cnc(N3CCCCC3Cc3ccccc3)nc21 (centres unmarked) [Compound 5.32, 3-(6-(2-Benzylpiperidin-1-yl)-1-methyl-1H-pyrazolo[3,4-d]pyrimidin-3-yl)-2,6-difluoro-5-(trifluoromethyl)phenol] |
| ≤ 100 | Cn1nc(-c2cc(C(F)(F)F)c(F)c(O)c2F)c2cnc(N3CCN(S(C)(=O)=O)C(CC4CC4)C3)nc21 (centres unmarked) [Compound 5.33, 3-(6-(3-(Cyclopropylmethyl)-4-(methylsulfonyl)piperazin-1-yl)-1-methyl-1H-pyrazolo[3,4-d]pyrimidin-3-yl)-2,6-difluoro-5-(trifluoromethyl)phenol] |
| 100 to 1000 | Cn1nc(-c2cc(C(F)(F)F)c(F)c(O)c2F)c2cnc(N3CCCCC3Cn3cncn3)nc21 (centres unmarked) [Compound 5.34, 3-(6-(2-((1H-1,2,4-Triazol-1-yl)methyl)piperidin-1-yl)-1-methyl-1H-pyrazolo[3,4-d]pyrimidin-3-yl)-2,6-difluoro-5-(trifluoromethyl)phenol] |
| ≤ 100 | CC(C)CC1COCCN1c1ncc2c(-c3cc(C(F)(F)F)c(F)c(O)c3F)nn(C)c2n1 (centres unmarked) [Compound 5.35, 2,6-Difluoro-3-(6-(3-isobutylmorpholino)-1-methyl-1H-pyrazolo[3,4-d]pyrimidin-3-yl)-5-(trifluoromethyl)phenol] |
| ≤ 100 | CN(c1ncc2c(-c3cc(C(F)(F)F)c(F)c(O)c3F)nn(C)c2n1)C1CCCN(Cc2ccccc2)C1 (centres unmarked) [Compound 5.36, 3-(6-((1-Benzylpiperidin-3-yl)(methyl)amino)-1-methyl-1H-pyrazolo[3,4-d]pyrimidin-3-yl)-2,6-difluoro-5-(trifluoromethyl)phenol] |
| ≤ 100 | Cn1nc(-c2cc(C(F)(F)F)c(F)c(O)c2F)c2cnc(N3CCN(S(C)(=O)=O)C(CC4CCC4)C3)nc21 (centres unmarked) [Compound 5.37, 3-(6-(3-(Cyclobutylmethyl)-4-(methylsulfonyl)piperazin-1-yl)-1-methyl-1H-pyrazolo[3,4-d]pyrimidin-3-yl)-2,6-difluoro-5-(trifluoromethyl)phenol] |
| ≤ 100 | COC(=O)N1CCN(c2ncc3c(-c4cc(C(F)(F)F)c(F)c(O)c4F)nn(C)c3n2)[C@H](Cc2ccccc2)C1 [Compound 6, Methyl (R)-3-benzyl-4-(3-(2,4-difluoro-3-hydroxy-5-(trifluoromethyl)phenyl)-1-methyl-1H-pyrazolo[3,4-d]pyrimidin-6-yl)piperazine-1-carboxylate] |
| ≤ 100 | CN(C)C(=O)N1CCN(c2ncc3c(-c4cc(C(F)(F)F)c(F)c(O)c4F)nn(C)c3n2)[C@H](Cc2ccccc2)C1 [Compound 6.01, (R)-3-Benzyl-4-(3-(2,4-difluoro-3-hydroxy-5-(trifluoromethyl)phenyl)-1-methyl-1H-pyrazolo[3,4-d]pyrimidin-6-yl)-N,N-dimethylpiperazine-1-carboxamide] |
| ≤ 100 | CC(=O)N1CCN(c2ncc3c(-c4cc(C(F)(F)F)c(F)c(O)c4F)nn(C)c3n2)[C@H](Cc2ccccc2)C1 [Compound 6.02, (R)-1-(3-Benzyl-4-(3-(2,4-difluoro-3-hydroxy-5-(trifluoromethyl)phenyl)-1-methyl-1H-pyrazolo[3,4-d]pyrimidin-6-yl)piperazin-1-yl)ethan-1-one] |
| ≤ 100 | COCC(=O)N1CCN(c2ncc3c(-c4cc(C(F)(F)F)c(F)c(O)c4F)nn(C)c3n2)[C@H](Cc2ccccc2)C1 [Compound 6.03, (R)-1-(3-Benzyl-4-(3-(2,4-difluoro-3-hydroxy-5-(trifluoromethyl)phenyl)-1-methyl-1H-pyrazolo[3,4-d]pyrimidin-6-yl)piperazin-1-yl)-2-methoxyethan-1-one] |
| ≤ 100 | CC(=O)N1CCN(c2ncc3c(-c4cc(C(F)(F)F)c(F)c(O)c4F)nn(C)c3n2)C[C@@H]1Cc1ccccc1 [Compound 6.04, (S)-1-(2-Benzyl-4-(3-(2,4-difluoro-3-hydroxy-5-(trifluoromethyl)phenyl)-1-methyl-1H-pyrazolo[3,4-d]pyrimidin-6-yl)piperazin-1-yl)ethan-1-one] |
| ≤ 100 | CC(=O)N1CCN(c2ncc3c(-c4cc(C(F)(F)F)c(F)c(O)c4F)nn(C)c3n2)C[C@H]1Cc1ccccc1 [Compound 6.05, (R)-1-(2-Benzyl-4-(3-(2,4-difluoro-3-hydroxy-5-(trifluoromethyl)phenyl)-1-methyl-1H-pyrazolo[3,4-d]pyrimidin-6-yl)piperazin-1-yl)ethan-1-one] |
| ≤ 100 | CNC(=O)N1CCN(c2ncc3c(-c4cc(C(F)(F)F)c(F)c(O)c4F)nn(C)c3n2)C[C@@H]1Cc1ccccc1 [Compound 6.06, (S)-2-Benzyl-4-(3-(2,4-difluoro-3-hydroxy-5-(trifluoromethyl)phenyl)-1-methyl-1H-pyrazolo[3,4-d]pyrimidin-6-yl)-N-methylpiperazine-1-carboxamide] |
| 100 to 1000 | CN(C)C(=O)N1CCN(c2ncc3c(-c4cc(C(F)(F)F)c(F)c(O)c4F)nn(C)c3n2)C[C@@H]1Cc1ccccc1 [Compound 6.07, (S)-2-Benzyl-4-(3-(2,4-difluoro-3-hydroxy-5-(trifluoromethyl)phenyl)-1-methyl-1H-pyrazolo[3,4-d]pyrimidin-6-yl)-N,N-dimethylpiperazine-1-carboxamide] |
| ≤ 100 | COC(=O)N1CCN(c2ncc3c(-c4cc(C(F)(F)F)c(F)c(O)c4F)nn(C)c3n2)C[C@@H]1Cc1ccccc1 [Compound 6.08, Methyl (S)-2-benzyl-4-(3-(2,4-difluoro-3-hydroxy-5-(trifluoromethyl)phenyl)-1-methyl-1H-pyrazolo[3,4-d]pyrimidin-6-yl)piperazine-1-carboxylate] |
| ≤ 100 | CCC(=O)N1CCN(c2ncc3c(-c4cc(C(F)(F)F)c(F)c(O)c4F)nn(C)c3n2)[C@H](Cc2ccccc2)C1 [Compound 6.09, (R)-1-(3-Benzyl-4-(3-(2,4-difluoro-3-hydroxy-5-(trifluoromethyl)phenyl)-1-methyl-1H-pyrazolo[3,4-d]pyrimidin-6-yl)piperazin-1-yl)propan-1-one] |
| ≤ 100 | CN(c1ncc2c(-c3cc(C(F)(F)F)c(F)c(O)c3F)nn(C)c2n1)C1(Cc2ccccc2)CCOCC1 [Compound 11.07, 3-(6-((4-Benzyltetrahydro-2H-pyran-4-yl)(methyl)amino)-1-methyl-1H-pyrazolo[3,4-d]pyrimidin-3-yl)-2,6-difluoro-5-(trifluoromethyl)phenol] |
| ≤ 100 | Cc1cc(-c2nn(C)c3nc(N4CCN(S(C)(=O)=O)C[C@H]4Cc4ccccc4)ncc23)c(F)c(O)c1F [Compound 11.08, (R)-3-(6-(2-Benzyl-4-(methylsulfonyl)piperazin-1-yl)-1-methyl-1H-pyrazolo[3,4-d]pyrimidin-3-yl)-2,6-difluoro-5-methylphenol] |
| ≤ 100 | Cn1nc(-c2cc(F)c(F)c(O)c2F)c2cnc(N3CCN(S(C)(=O)=O)C[C@H]3Cc3ccccc3)nc21 [Compound 11.09, (R)-3-(6-(2-Benzyl-4-(methylsulfonyl)piperazin-1-yl)-1-methyl-1H-pyrazolo[3,4-d]pyrimidin-3-yl)-2,5,6-trifluorophenol] |
| ≤ 100 | Cn1nc(-c2cc(F)c(Cl)c(O)c2F)c2cnc(N3CCN(S(C)(=O)=O)C[C@H]3Cc3ccccc3)nc21 [Compound 11.10, (R)-3-(6-(2-Benzyl-4-(methylsulfonyl)piperazin-1-yl)-1-methyl-1H-pyrazolo[3,4-d]pyrimidin-3-yl)-6-chloro-2,5-difluorophenol] |
| 1000 to 30000 | Cn1nc(-c2cccc(O)c2)c2cnc(N3CCN(S(C)(=O)=O)C[C@H]3Cc3ccccc3)nc21 [Compound 11.11, (R)-3-(6-(2-Benzyl-4-(methylsulfonyl)piperazin-1-yl)-1-methyl-1H-pyrazolo[3,4-d]pyrimidin-3-yl)phenol] |
| ≤ 100 | Cn1nc(-c2cc(Cl)c(F)c(O)c2F)c2cnc(N3CCN(S(C)(=O)=O)C[C@H]3Cc3ccccc3)nc21 [Compound 11.12, (R)-3-(6-(2-Benzyl-4-(methylsulfonyl)piperazin-1-yl)-1-methyl-1H-pyrazolo[3,4-d]pyrimidin-3-yl)-5-chloro-2,6-difluorophenol] |
| ≤ 100 | Cn1nc(-c2cc(C(F)(F)F)c(F)c(O)c2F)c2cnc(N3CCN(S(C)(=O)=O)CC3CC3CC3)nc21 (centres unmarked) [Compound 11.13, 3-(6-(2-(Cyclopropylmethyl)-4-(methylsulfonyl)piperazin-1-yl)-1-methyl-1H-pyrazolo[3,4-d]pyrimidin-3-yl)-2,6-difluoro-5-(trifluoromethyl)phenol] |
| ≤ 100 | Cn1nc(-c2cc(C(F)(F)F)c(F)c(O)c2F)c2cnc(N3CCN(C(=O)C(F)(F)F)CC3CC3CC3)nc21 (centres unmarked) [Compound 11.14, 1-(3-(Cyclopropylmethyl)-4-(3-(2,4-difluoro-3-hydroxy-5-(trifluoromethyl)phenyl)-1-methyl-1H-pyrazolo[3,4-d]pyrimidin-6-yl)piperazin-1-yl)-2,2,2-trifluoroethan-1-one] |
